{
  "source": "patent US20210300926A1",
  "about": "“NEW BETA-LACTAMASE INHIBITORS TARGETING GRAM NEGATIVE BACTERIA” (priority 2017, published 2021)",
  "key": {"[1]": {"system": "E. coli Top10 producing TEM-1", "experiment": "MIC determination by microdilution, E. coli Top10 producing TEM-1", "type": "cell-based", "details": "Escherichia coli, read-out: MIC of β-lactam, inhibitor None", "text": "(§1) Plasmid and strain construction. For antibiotic susceptibility testing, the R-lactamase genes were cloned into the vector pTRC-99k, which is a derivative of pTRC99a (Pharmacia) obtained by replacing the β-lactamase resistance gene by a kanamycin resistance gene (Km, lacl, pTRC promoter, oriVcolEl; D. Mengin-Lecreulx, unpublished). Recombinant plasmids were introduced by electrotransformation into Escherichia coli Top10. For β-lactamase production, fragments of the β-lactamase genes encoding soluble enzymes, i.e. devoid of the signal peptides, were cloned into the vector pET-TEV generating translational fusions with a vector-encoded N-terminal 6×His Tag followed by a TEV cleavage site ([…]) (1).\n(§2) MIC determination. MICs of β-lactams were determined by the microdilution method in MH broth according to Clinical and Laboratory Standards Institute (CLSI) recommendations (12). Diazabicyclooctane were used at a fixed concentration of 15 μM (4 μg/ml for avibactam). Clavulanate was tested at 4 μg/ml. IPTG (500 μM) was added to the microdilution plates to induce production of the -lactamase. The precultures were grown in BHI broth containing IPTG (500 μM) and kanamycin (50 μg/ml) for plasmid maintenance. Reported MICs are the medians from five biological repeats obtained in two independent experiments."}, "E. coli Top10": {"system": "E. coli Top10", "experiment": "MIC determination by microdilution, E. coli Top10 without β-lactamase (None)", "type": "cell-based", "details": "Escherichia coli; Cefamandole alone; E. coli Top10, β-lactamase None; read-out: MIC of β-lactam, inhibitor None", "text": "as §1, §2"}},
  "data": [
    {"smiles": "Cn1nnnc1SCC1=C(C(=O)O)N2C(=O)[C@@H](NC(=O)[C@H](O)c3ccccc3)[C@H]2SC1", "note": "[Cefamandole]", "values": [
      {"measurement": "MIC", "setting": "[1]", "value": "> 2050", "unit": "µg/mL"},
      {"measurement": "MIC", "setting": "E. coli Top10", "value": 2, "unit": "µg/mL"}
    ]}
  ]
}
